In the supplement of paper PMC10307832:

Key:
Assay in all cases: relative viability (nuclei count vs DMSO), 5 days (fraction); higher = more cells survive
[1] = compound: Cn1cncc1[C@@](N)(c1ccc(Cl)cc1)c1ccc2c(c1)c(-c1cccc(Cl)c1)cc(=O)n2C [Tipifarnib] + CC1(C)CCC(c2ccc(Cl)cc2)=C(CN2CCN(c3ccc(C(=O)NS(=O)(=O)c4ccc(N[C@H](CCN5CCOCC5)CSc5ccccc5)c(S(=O)(=O)C(F)(F)F)c4)cc3)CC2)C1 [Navitoclax] (partner 0.5 µM)
Summary of the method: (§1)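 Lung cancer cell lines in 1536-well plates got either a single drug or a fixed anchor-drug dose together with five library-drug doses (not always all listed) in √10 steps, by pin tool, on the day after seeding. Nuclei were counted after 5 days, and relative viability is the treated-to-vehicle ratio of nuclei counts. Values are medians of duplicate plates.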

[2] = compound: Cn1cncc1[C@@](N)(c1ccc(Cl)cc1)c1ccc2c(c1)c(-c1cccc(Cl)c1)cc(=O)n2C [Tipifarnib] + C[C@@H](Oc1cc(-c2cnn(C3CCNCC3)c2)cnc1N)c1c(Cl)ccc(F)c1Cl [Crizotinib] (partner 1 µM)
Summary of the method: as §1

[3] = compound: Cn1cncc1[C@@](N)(c1ccc(Cl)cc1)c1ccc2c(c1)c(-c1cccc(Cl)c1)cc(=O)n2C [Tipifarnib] + Cc1nc(Nc2ncc(C(=O)Nc3c(C)cccc3Cl)s2)cc(N2CCN(CCO)CC2)n1 [Dasatinib] (partner 0.075 µM)
Summary of the method: as §1

[4] = compound: Cn1cncc1[C@@](N)(c1ccc(Cl)cc1)c1ccc2c(c1)c(-c1cccc(Cl)c1)cc(=O)n2C [Tipifarnib] + O=C(CCCCCCC(=O)Nc1ccccc1)NO [Vorinostat] (partner 1 µM)
Summary of the method: as §1

Cell Line	relative viability ([1]; first compound 0.01 µM)	relative viability ([1]; first compound 0.03162 µM)	relative viability ([1]; first compound 0.1 µM)	relative viability ([1]; first compound 0.3162 µM)	relative viability ([1]; first compound 1 µM)	relative viability ([2]; first compound 0.01 µM)	relative viability ([2]; first compound 0.03162 µM)	relative viability ([2]; first compound 0.1 µM)	relative viability ([2]; first compound 0.3162 µM)	relative viability ([2]; first compound 1 µM)	relative viability ([3]; first compound 0.01 µM)	relative viability ([3]; first compound 0.03162 µM)	relative viability ([3]; first compound 0.1 µM)	relative viability ([3]; first compound 0.3162 µM)	relative viability ([3]; first compound 1 µM)	relative viability ([4]; first compound 0.01 µM)	relative viability ([4]; first compound 0.03162 µM)	relative viability ([4]; first compound 0.1 µM)	relative viability ([4]; first compound 0.3162 µM)	relative viability ([4]; first compound 1 µM)
NCI-H1437	1.14	1.07	1.06	1.03	0.927	0.978	0.959	1	0.763	0.894	0.446	0.482	0.452	0.416	0.214	0.837	0.796	0.747	0.646	0.601
NCI-H2170	0.733	0.566	0.448	0.433	0.338	1.33	1.04	1.1	0.857	0.644	0.688	0.805	0.601	0.636	0.462	0.831	0.774	0.697	0.637	0.335
NCI-H441	0.498	0.255	0.481	0.294	0.253	0.723	0.465	0.492	0.346	0.277	0.592	0.516	0.484	0.396	0.277	1.08	0.724	0.68	0.431	0.44
SK-LU-1	0.779	0.488	0.435	0.25	0.405	0.932	0.665	0.667	0.639	0.657	0.16	0.152	0.156	0.14	0.133	0.771	0.635	0.492	0.417	0.471
BEN	0.0636	0.0524	0.0587	0.0688	0.0536	0.928	0.939	0.731	0.684	0.636	0.313	0.294	0.321	0.255	0.254	0.597	0.488	0.538	0.464	0.422
LC-2-ad	0.413	0.296	0.258	0.216	0.201	0.399	0.391	0.382	0.349	0.35	0.54	0.545	0.496	0.277	0.336	0.634	0.505	0.42	0.336	0.305
COR-L23	1.15	0.804	0.679	0.492	0.556	0.731	0.341	0.3	0.248	0.386	0.59	0.406	0.365	0.264	0.2	0.541	0.34	0.316	0.221	0.252
NCI-H1650	0.666	0.352	0.402	0.291	0.289	0.47	0.454	0.401	0.324	0.337	0.274	0.254	0.24	0.22	0.202	0.415	0.399	0.306	0.253	0.212
RERF-LC-KJ	1.14	0.931	0.61	0.467	0.46	0.794	0.847	0.754	0.633	0.713	0.884	0.778	0.724	0.535	0.574	0.652	0.652	0.544	0.324	0.224
NCI-H1915	0.791	0.65	0.768	0.455	0.469	0.7	0.684	0.431	0.405	0.425	0.241	0.182	0.201	0.175	0.16	0.544	0.43	0.373	0.305	0.336
NCI-H596	1.05	0.78	0.72	0.739	0.64	1.09	0.974	1.03	0.945	0.813	0.612	0.653	0.527	0.423	0.384	1.11	0.462	0.467	0.456	0.434
NCI-H2009	1.13	1.06	0.785	0.63	0.744	0.994	1.01	0.789	0.563	0.578	0.31	0.232	0.217	0.211	0.21	0.604	0.411	0.405	0.577	0.504
NCI-H2126	0.888	0.822	0.845	0.74	0.709	0.977	1.01	1.02	0.924	0.904	0.652	0.673	0.648	0.578	0.391	0.797	0.752	0.763	0.768	0.409
LXF-289	0.936	0.959	0.87	0.829	0.856	0.769	0.759	0.715	0.694	0.64	0.218	0.237	0.249	0.217	0.0926	0.775	0.755	0.665	0.59	0.332
PC-14	1.05	0.847	0.658	0.482	0.51	0.928	0.834	0.748	0.469	0.43	0.261	0.206	0.191	0.128	0.093	0.698	0.324	0.455	0.236	0.157
HOP-62	0.937	0.55	0.377	0.233	0.33	0.726	0.528	0.303	0.35	0.448	0.683	0.392	0.37	0.277	0.338	0.624	0.186	0.335	0.243	0.203
